In PMC10755728, “Inhibitors of the Elastase LasB for the Treatment of Pseudomonas aeruginosa Lung Infections” (ACS Central Science, 2023):
Read-outs that look alike come from different tables or passages of the source.

Experiments:
in vivo = conditions: mice, nebulization 10 mg/kg; for Cmax / Tmax: 10 mg/kg
Experimental: Up to 5 compounds were dosed per cassette.
anesthetized using ketamine 100 mg/kg and xylazine 10 mg/kg intraperitoneally.
time point) were euthanized at t= 0.5, 2 and 5 h post administration.
10 mg/kg using a Kent Scientific Aeroneb® nebulizer.
Blood was collected from the heart.
blood was collected into Eppendorf tubes coated with 0.5 M EDTA and immediately spun down
at 13,000 rpm for 10 min at 4 °C. The plasma was transferred into a new Eppendorf tube and then
stored at –80 °C until analysis. Then, a broncheoalveolar lavage was conducted using isotonic
sodium chloride solut ion. Lung, kidneys, and liver were aseptically removed and homogenized
using a Polytron tissue homogenizer (Kinematica) in isotonic sodium chloride solution.
samples were aliquoted into Eppendorf tubes and stored at –80 °C until analysis.
spontaneous urine was also collected. Bioanalytical sample preparation.
an AB Sciex QTrap6500+ mass spectrometer. First, a calibration curve was prepared by spiking
Caffeine was used as an internal standard.
min at 2,000 rpm on an Eppendorf MixMate® vortex mixer.
caffeine as internal standard for 5 min at 2000 rpm on an Eppendorf MixMate® vortex mixer.
Then samples (plasma and urine) were spun down at 1 3,000 rpm for 5 min. Supernatants were transferred to standard HPLC -glass vials.
tissue sample (calibration samples, QCs or PK samples) were extracted with 50 µL of methanol
and 1 µL caffeine (concent ration 1 µg/mL in methanol) for 5 min at 800 rpm on an Eppendorf MixMate® vortex mixer. Then samples (BALF, liver, kidney, lung) were spun down at 4,000 rpm
for 40 min at 4 °C. Supernatants were transferred to 96well V -bottom plates (Greiner).
conditions were as follows: column: Agilent Zorbax Eclipse Plus C18, 50x2.1 mm, 1.8 µm;
temperature: 30 °C; injection volume: 5 µL; flow rate: 700 µL/min; solvent A: water + 0.1%
Urea was used to enable calculation of
epithelial lining fluid (ELF) concentrations. Peak areas of each sample and of the corresponding
internal standard were analyzed using MultiQuant 3.0 software (AB Sciex).
respective sample were normalized to the internal standard peak area.
compound were used for qualification.
curve. The accuracy of the calibration curve was determined using QCs independently prepared
on different days. PK parameters were determined using a non-compartmental analysis with

MMP-2 = target: T1, MMP-2 (Homo sapiens, UniProt P08253); assay: MMP-2 inhibition assay; format: biochemical; conditions: read-out: % inhibition MMP-2
T1 construct: purchased AnaSpec (Fremont, CA, USA)
T1 sequence (P08253 110-660): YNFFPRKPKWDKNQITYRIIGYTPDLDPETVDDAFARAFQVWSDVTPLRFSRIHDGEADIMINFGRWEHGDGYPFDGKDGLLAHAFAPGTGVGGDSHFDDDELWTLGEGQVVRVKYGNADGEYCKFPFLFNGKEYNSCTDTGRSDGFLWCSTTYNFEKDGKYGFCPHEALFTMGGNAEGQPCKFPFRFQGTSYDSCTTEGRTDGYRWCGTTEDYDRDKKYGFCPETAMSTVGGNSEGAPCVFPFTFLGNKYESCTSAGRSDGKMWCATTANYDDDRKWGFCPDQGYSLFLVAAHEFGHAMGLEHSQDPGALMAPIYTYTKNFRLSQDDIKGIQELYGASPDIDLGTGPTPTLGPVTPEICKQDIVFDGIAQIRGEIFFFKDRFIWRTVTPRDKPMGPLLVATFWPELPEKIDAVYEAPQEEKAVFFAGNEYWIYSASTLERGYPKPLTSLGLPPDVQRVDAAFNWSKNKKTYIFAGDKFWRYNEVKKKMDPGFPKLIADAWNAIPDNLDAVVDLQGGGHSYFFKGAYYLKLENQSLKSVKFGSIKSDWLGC

ColH-PD = ColH-PD (Hathewaya histolytica, UniProt Q46085); assay: biochemical; format: biochemical, Clostridium histolyticum; conditions: read-out: % inhibition ColH-PD @1 µM
MMP-1 = target: T2, MMP-1 (Homo sapiens, UniProt P03956); assay: MMP-1 inhibition assay; format: biochemical; conditions: read-out: % inhibition MMP-1
T2 construct: purchased AnaSpec (Fremont, CA, USA)
T2 sequence (P03956 100-469): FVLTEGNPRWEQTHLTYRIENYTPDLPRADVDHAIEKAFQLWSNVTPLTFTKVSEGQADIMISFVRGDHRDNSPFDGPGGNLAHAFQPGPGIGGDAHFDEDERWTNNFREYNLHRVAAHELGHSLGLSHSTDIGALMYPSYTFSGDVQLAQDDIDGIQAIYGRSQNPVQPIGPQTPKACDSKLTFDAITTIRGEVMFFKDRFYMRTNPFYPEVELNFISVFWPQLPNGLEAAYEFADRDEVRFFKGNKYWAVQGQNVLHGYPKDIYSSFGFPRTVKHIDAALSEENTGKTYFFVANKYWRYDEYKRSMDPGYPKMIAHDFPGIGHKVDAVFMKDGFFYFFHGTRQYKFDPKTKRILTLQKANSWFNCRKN

[1] = Metabolic stability in human liver S9 fraction; format: in vitro ADME
HEK293 = conditions: human, 48 h, 100 µM
Experimental: (§1) Culturing of HepG2, A549 and HEK293 cells. The human hepatocellular carcinoma cell line HepG2, the lung adenocarcinoma cell line A549 and Human Embryonic (HEK) 293 cells were cultured in Dulbecco's Modified Eagle Medium (DMEM), containing 10% Fetal Bovine Serum
(§2) (FBS) and 1% penicillin-streptomycin mixture. Cells were maintained according to standard cell
(§3) Cytotoxicity assay. An MTT-based assay was employed to evaluate the viability of HepG2,
(§4) HEK293 and A549 cells after challenge with selected LasB inhibitors and performed as described

COX-1 = target: T3, COX-1 (Ovis aries, UniProt P05979); assay: Fluorometric COX-1 inhibitor assay; format: biochemical, human
T3 construct: purchased Abcam (Cambridge, UK)
T3 sequence (P05979 25-600): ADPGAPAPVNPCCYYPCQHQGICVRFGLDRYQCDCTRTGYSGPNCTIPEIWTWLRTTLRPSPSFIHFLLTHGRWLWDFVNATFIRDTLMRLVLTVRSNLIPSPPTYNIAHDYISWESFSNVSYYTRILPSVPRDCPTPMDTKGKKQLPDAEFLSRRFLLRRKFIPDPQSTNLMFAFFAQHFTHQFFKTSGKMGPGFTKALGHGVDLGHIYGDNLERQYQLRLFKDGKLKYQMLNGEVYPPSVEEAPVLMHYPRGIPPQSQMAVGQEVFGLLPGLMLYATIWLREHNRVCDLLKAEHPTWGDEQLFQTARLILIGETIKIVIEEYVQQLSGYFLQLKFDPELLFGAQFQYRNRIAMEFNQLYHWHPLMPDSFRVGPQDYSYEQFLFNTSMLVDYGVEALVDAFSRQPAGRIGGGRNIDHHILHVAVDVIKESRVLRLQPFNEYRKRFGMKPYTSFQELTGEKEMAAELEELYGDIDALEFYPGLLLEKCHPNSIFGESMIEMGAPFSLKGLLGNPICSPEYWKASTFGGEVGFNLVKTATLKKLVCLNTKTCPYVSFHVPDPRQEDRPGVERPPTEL

MMP-3 = target: T4, MMP-3 (Homo sapiens, UniProt P08254); assay: MMP-3 inhibition assay; format: biochemical; conditions: read-out: % inhibition MMP-3
T4 construct: purchased AnaSpec (Fremont, CA, USA)

Plasma stability, mouse = format: in vitro ADME
[2] = tested on: A549 cells treated with P. aeruginosa PAO1 and PA14 supernatants; assay: A549 cells challenged with P. aeruginosa culture supernatants
Experimental: Cells were maintained according to standard cell
PA14 csn production. The csn of wt PA14 and ΔlasB PA14 was produced as we previously
Validation of the effect of LasB inhibitors on A549 cells in vitro. The experiment was performed
as described previously.32 The Picrosirius red assay was performed by washing the csn-challenged
cells (± inhibitor) 3x with PBS followed by an incubation with Bouin solution (Sigma) at RT for
20 min. The cells were incubated with 0.1% Picrosirius red dye (ab150681) at RT for 2 h. Then,
they were washed once with 0.01 N HCl, and the matrix was dissolved in 0.01 N NaOH. The
absorption was measured at 570 nm using a PHERAstar plate reader (BMG Labtech). By dividing
the absorbance of each sample by the absorbance of the healthy sample, the relative collagen
quantity was determined. For each condition, the experiment was performed three times. To
determine the rescue of A549 cells treated with 5% wt PA14 csn using our compounds, the LasB
inhibitors were used at 2, 0.5, 0.1 and 0.05 µM. The compounds were incubated in F12K medium,
Cell detachment was then evaluated, and a Trypan Blue cell
cells/well were seeded into a flat bottom 96-well plate (Corning™ Costar™) and incubated at 37
were tested against 10% (v/v) P. aeruginosa PAO1 csn diluted in DMEM starting from 10 µM
and 20 µM, respectively. Compound was initially dissolved in DMSO, and a low final assay
concentration of 0.5% (v/v) was applied to minimize the proteolytic effect of DMSO on the
bacterial culture supernatant. In addition, cells were challenged with 10% (v/v) of ΔlasB PAO1 to

Plasma stability, rat = format: in vitro ADME; conditions: Wistar, pooled plasma, species profiling, read-out: Plasma T1/2 Rat (Wistar)
LasB [3] = target: T5, LasB (Pseudomonas aeruginosa, UniProt Q02RJ6); assay: biochemical; format: biochemical
T5 construct: made in house

HepG2 = conditions: human, 48 h, 100 µM
Experimental: as §1, §2, §3, §4

[4] = Plasma stability, minipig; format: in vitro ADME; conditions: Göttingen, pooled plasma, species profiling, read-out: Plasma T1/2 Minipig (Göttingen)
P. aeruginosa PA14 = assay: Bacterial growth inhibition assay; format: cell-based, Pseudomonas aeruginosa
Experimental: Bacterial growth inhibition assay. Assays regarding the determination of the MIC were
performed as described recently for P. aeruginosa PA14.58

LasB [5] = format: in vivo, mouse; conditions: compared to the vehicle group; 4b 10 mg/kg TID, levofloxacin 25 mg/kg
[6] = Microsomal stability, mouse liver microsomes; format: in vitro ADME; conditions: C57BL6, mouse, pooled liver microsomes

T5 sequence (Q02RJ6 198-498): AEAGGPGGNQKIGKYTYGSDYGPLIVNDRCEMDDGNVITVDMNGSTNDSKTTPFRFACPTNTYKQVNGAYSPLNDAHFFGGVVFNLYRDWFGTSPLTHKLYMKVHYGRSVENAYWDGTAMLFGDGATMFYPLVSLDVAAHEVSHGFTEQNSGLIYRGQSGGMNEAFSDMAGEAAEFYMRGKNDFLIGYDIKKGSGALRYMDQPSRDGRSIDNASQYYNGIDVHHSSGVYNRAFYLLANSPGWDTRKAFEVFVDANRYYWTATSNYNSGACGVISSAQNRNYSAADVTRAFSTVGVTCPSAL
T4 sequence (P08254 100-477): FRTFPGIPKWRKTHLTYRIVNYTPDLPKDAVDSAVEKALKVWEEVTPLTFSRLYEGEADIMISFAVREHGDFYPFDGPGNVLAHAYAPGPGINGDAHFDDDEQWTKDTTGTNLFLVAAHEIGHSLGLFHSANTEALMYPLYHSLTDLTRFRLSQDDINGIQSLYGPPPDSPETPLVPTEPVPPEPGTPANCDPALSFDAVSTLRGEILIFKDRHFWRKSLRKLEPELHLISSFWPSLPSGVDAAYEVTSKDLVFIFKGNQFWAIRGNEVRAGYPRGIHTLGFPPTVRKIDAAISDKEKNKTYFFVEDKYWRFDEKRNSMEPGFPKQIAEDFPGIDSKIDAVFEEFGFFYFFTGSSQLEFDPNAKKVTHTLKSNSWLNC
Sequence of ColH-PD (Q46085 331-721 limits assumed): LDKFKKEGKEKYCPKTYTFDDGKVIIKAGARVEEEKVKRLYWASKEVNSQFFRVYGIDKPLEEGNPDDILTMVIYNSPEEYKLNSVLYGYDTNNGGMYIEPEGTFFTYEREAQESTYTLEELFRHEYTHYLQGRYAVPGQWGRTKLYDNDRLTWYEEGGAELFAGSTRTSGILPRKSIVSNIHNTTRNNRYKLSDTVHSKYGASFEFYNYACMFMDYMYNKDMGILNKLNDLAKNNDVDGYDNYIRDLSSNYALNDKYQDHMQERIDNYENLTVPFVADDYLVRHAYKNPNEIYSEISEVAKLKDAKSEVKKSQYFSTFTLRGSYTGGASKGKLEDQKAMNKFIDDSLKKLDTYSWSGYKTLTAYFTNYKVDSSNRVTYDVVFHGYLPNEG

For `CC(C)CC(C(=O)Nc1ccc(C(F)(F)F)cc1)P(=O)(O)O` (stereo not shown) [Compound 4b], the Kp (in vivo; male, CD-1, mouse, ELF/plasma, inhaled, read-out: ELF/plasma ratio) was 6.12, the Cmax (in vivo; male, CD-1, mouse, epithelial lining fluid (ELF), inhaled or intranasal, read-out: Cmax ELF) was 19900 ± 14000 ng/mL and the Tmax (in vivo; male, CD-1, mouse, epithelial lining fluid (ELF), inhaled or intranasal, read-out: Tmax ELF) was 0.58 ± 0.4 h. For the same compound, the AUC(0-t) (in vivo; male, CD-1, mouse, epithelial lining fluid (ELF), inhaled or intranasal, read-out: AUC 0-t ELF) was 49700 ± 16200 ng·h/mL, the CL/F (in vivo; male, CD-1, mouse, inhaled or intranasal, plasma) was 20.7 ± 2 mL/min/kg and the Tmax (in vivo; male, CD-1, mouse, lung, inhaled or intranasal, read-out: Tmax lung) was 0.33 ± 0.1 h. For the same compound, the Cmax (in vivo; male, CD-1, mouse, plasma, inhaled or intranasal, read-out: Cmax plasma) was 633 ± 59 ng/mL, the Tmax (in vivo; male, CD-1, mouse, plasma, inhaled or intranasal, read-out: Tmax plasma) was 4 ± 3.5 h and the MRT (in vivo; male, CD-1, mouse, plasma, inhaled or intranasal) was 6.8 ± 0.3 h. For the same compound, the AUC(0-t) (in vivo; male, CD-1, mouse, plasma, inhaled or intranasal, read-out: AUC 0-t plasma) was 8130 ng·h/mL, the half-life (in vivo; male, CD-1, mouse, plasma, inhaled or intranasal, read-out: t1/2 plasma (converted)) was 4 ± 0.3 h and the “AUC 0-t lung” value (in vivo) was 249.0 ± 72.9 ng·h/g. It also gave a Cmax lung (in vivo) of 78.4 ± 15.9 ng/g, an inhibition at 100 µM (MMP-2) of 25 ± 4% and an inhibition at 1 µM (ColH-PD) of 14 ± 8%. For the same compound, the inhibition at 100 µM (MMP-1) was 21 ± 1%, the microsomal CLint at 1 μM [1] was less than 5.8 µL/min/mg and the “% growth inhibition HEK293” value (HEK293) was 11 ± 1%. The inhibition at 100 µM (COX-1) was less than 10%, the inhibition at 100 µM (MMP-3) was 29 ± 8% and the half-life (Plasma stability, mouse; C57BL6, mouse, pooled plasma, species profiling, read-out: Plasma T1/2 Mouse (C57BL6)) was greater than 4 h. For the same compound, the half-life at 1 μM (Plasma stability, mouse; mouse plasma, read-out: Plasma T1/2 Mouse) was greater than 2.5 h, the “reduction of cleavage of collagen” value ([2]; A549 cells, 15% (v/v) wt PA14 csn, 3.15 μM) was 20% and the “LasB-related cytotoxicity in csn-treated A549 cells” value ([2]; PAO1 or PA14 csn) was “dose-dependent reduction of LasB-related cytotoxicity”. For the same compound, the half-life (Plasma stability, rat) was greater than 4 h, the IC50 (LasB [3]; FRET-based assay, read-out: LasB IC50) was 26.3 ± 7.6 nM and the IC50 (LasB [3]; LasB IC50, FRET-based assay) was roughly 25 nM. For the same compound, the IC50 (LasB [3]; LasB IC50 in presence of 1% pulmonary surfactant, 1% pulmonary surfactant) was 76 ± 23 nM, the “% growth inhibition HepG2” value (HepG2) was 18 ± 11% and the half-life [4] was greater than 4 h. The inhibition at 100 µM (P. aeruginosa PA14; Pseudomonas aeruginosa, PA14, 100 µM compound concentration, read-out: Percent (%) growth inhibition of P. aeruginosa PA14) was less than 10%, the antibacterial activity (P. aeruginosa PA14; up to 100 μM) was “do not possess any antibacterial activity” and the “LasB protein levels in blood” value (LasB [5]) was “strong reduction”. The microsomal CLint [6] was less than 11.6 µL/min/mg.
